Laboratory results: patent US5420128A, “Pyrimidine derivatives, method of manufacturing the same, and androgen inhibitor” (Otsuka Pharmaceutical Co., Ltd., priority 1990, dated 1995)

target: T1, rat prostate androgen receptor (Rattus norvegicus, UniProt P15207); assay: inhibitory activity on binding of ^3 H-5α-DHT on rat prostate androgen receptor; details: ^3 H-5α-DHT 1 nM, rat ventral prostate cytosol, about 20 hours at 0° C.; read-out: Inhibitory activity on 5α-DHT specific binding [IC50 (M)]
T1 construct: the supernatant was obtained as cytoplasm fraction; from tissue; host or cells: cytosol (105000×g supernatant) of rat ventral prostate, 24 hours after castration
T1 sequence (P15207 1-902): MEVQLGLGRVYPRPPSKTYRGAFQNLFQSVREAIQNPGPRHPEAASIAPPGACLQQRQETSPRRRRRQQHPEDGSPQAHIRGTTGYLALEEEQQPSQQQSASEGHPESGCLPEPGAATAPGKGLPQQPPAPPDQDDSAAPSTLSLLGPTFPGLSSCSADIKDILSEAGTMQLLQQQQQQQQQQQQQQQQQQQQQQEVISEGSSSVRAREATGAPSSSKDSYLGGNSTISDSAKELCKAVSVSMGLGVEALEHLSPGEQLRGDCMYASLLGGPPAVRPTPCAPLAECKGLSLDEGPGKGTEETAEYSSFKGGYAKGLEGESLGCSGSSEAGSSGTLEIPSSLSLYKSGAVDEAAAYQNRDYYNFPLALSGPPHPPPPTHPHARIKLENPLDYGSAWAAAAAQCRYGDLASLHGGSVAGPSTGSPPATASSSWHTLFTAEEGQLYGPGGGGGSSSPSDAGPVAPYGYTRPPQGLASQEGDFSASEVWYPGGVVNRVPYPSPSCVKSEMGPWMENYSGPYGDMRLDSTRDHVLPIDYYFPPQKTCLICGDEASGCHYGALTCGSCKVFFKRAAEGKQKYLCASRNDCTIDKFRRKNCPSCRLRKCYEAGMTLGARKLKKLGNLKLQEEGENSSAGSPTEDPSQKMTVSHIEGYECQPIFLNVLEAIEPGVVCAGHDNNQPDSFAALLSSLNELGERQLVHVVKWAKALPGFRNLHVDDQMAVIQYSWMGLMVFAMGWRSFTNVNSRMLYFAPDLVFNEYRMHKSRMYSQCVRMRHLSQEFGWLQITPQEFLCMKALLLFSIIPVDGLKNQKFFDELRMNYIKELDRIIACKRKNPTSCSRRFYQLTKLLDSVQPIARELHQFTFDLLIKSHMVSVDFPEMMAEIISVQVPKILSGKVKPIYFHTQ
Experimental: The compounds obtained in Examples were evaluated in the following pharmacological studies A and B. The pharmacological study A was conducted in conformity with J.B.C. 256 (15) 7998-8005, 1981.
A. Measurement of inhibitory activity on binding of ^3 H-5α-[…] (^3 H-5α,-DHT) on rat prostate androgen receptor
(1) Preparation of cytosol from rat prostate
The rat was sacrificed 24 hours after castration, and the ventral lobe of prostate was removed, and was gently homogenized, on ice water bath, by using a Potter homogenizer in three-fold amount of 0.25M sucrose-TME buffer solution (50 mM tris-HCl (pH 7.4), 0.5 mM mercaptoethanol, and 0.1 mM EDTA-2 Na). The homogenate was filtrated through double gauze, and ultracentrifuged at 105000×g for 60 minutes, and the supernatant was used as androgen receptor.
(2) Measurement of ^3 H-5α-DHT specific binding on prostate cytoplasmic androgen receptor
To the cytosol obtained in (1), ^3 H-5α-DHT (47.8 Ci/mmol) was added, so that a final concentration is adjusted to 1 nM, and 0.25 M sucrose-TME buffer was added to adjust the final volume to 0.5 ml, and the reaction mixture was incubated for about 20 hours at 0° C. An ammonium sulfate solution dissolved in 0.25 M sucrose-TME buffer was mixed to be 35% saturation, and after standing for 90 minutes at 0° C., the mixture was centrifuged at 10000×g for 10 minutes at 4° C., and the precipitate was obtained.
This precipitate was suspended again in 0.8 ml of the above buffer solution, and furthermore in order to remove the free type ^3 H-5α-DHT, 0.2 ml of dextran-carbon powder suspension (4% activated carbon, 0.1% dextran T-70, and 0.1% gelatin dissolved in the above buffer solution) was added and mixed, and the mixture was let stand for 10 minutes at 0° C. At 4° C., in succession, the mixture was centrifuged at 3000×g for 10 minutes, and 0.5 ml of the supernatant was transferred into a vial, and 10 ml of aquasol-2 was added, and radioactivity was measured, and the total binding amount of ^3 H-5α-DHT on the prostate cytoplasma androgen receptor was determined. The nonspecific binding amount was similarly determined by adding a non-radioactive ligand (5α-DHT) to the reaction solution to a final concentration of 1 μM. The difference between the total binding amount and nonspecific binding amount was determined as the specific binding amount on the androgen receptor.
(3) Inhibitory activity of sample compounds on ^3 H-5α-DHT specific binding
The compounds obtained in Examples were incubated with ^3 H-5α-DHT at several concentrations same as in (2), and the specific binding amount of ^3 H-5α-DHT on the androgen receptor was determined. Comparing the obtained value with the value of (2), the IC50 value of the test compounds on ^3 H-5α-DHT specific binding was determined. The following compounds were used as the positive controls.

| SMILES | IC50 [M] |
| --- | --- |
| Cc1cc(-c2cnn3c(O)ncnc23)ccc1SCc1ccccc1 [Example 79, 8-(4-Benzylthio-3-methylphenyl)-4-hydroxypyrazolo[1,5-a]-1,3,5-triazine] | 1.1e-07 |
| Cc1cc(-c2cnn3c(O)ncnc23)ccc1Sc1ccccc1 [Example 81, 4-Hydroxy-8-(3-methyl-4-phenylthiophenyl)pyrazolo[1,5-a]-1,3,5-triazine] | 1.5e-07 |
| Cc1ccccc1Sc1ccc(-c2cnn3c(O)ncnc23)cc1C [Example 82, 4-Hydroxy-8-[3-methyl-4-(2-methylphenylthio)phenyl]pyrazolo[1,5-a]-1,3,5-triazine] | 1.1e-06 |
| Cc1cccc(Sc2ccc(-c3cnn4c(O)ncnc34)cc2C)c1 [Example 83, 4-Hydroxy-8-[3-methyl-4-(3-methylphenylthio)phenyl]pyrazolo[1,5-a]-1,3,5-triazine] | 1.3e-07 |
| Cc1ccc(Sc2ccc(-c3cnn4c(O)ncnc34)cc2C)cc1 [Example 84, 4-Hydroxy-8-[3-methyl-4-(4-methylphenylthio)phenyl]pyrazolo[1,5-a]-1,3,5-triazine] | 1.5e-06 |
| COc1cccc(Sc2ccc(-c3cnn4c(O)ncnc34)cc2C)c1 [Example 85, 4-Hydroxy-8-[4-(3-methoxyphenylthio)-3-methyl]phenylpyrazolo[1,5-a]-1,3,5-triazine] | 1.6e-07 |
| COc1ccc(Sc2ccc(-c3cnn4c(O)ncnc34)cc2C)cc1 [Example 86, 4-Hydroxy-8-[4-(4-methoxyphenylthio)-3-methyl]phenylpyrazolo[1,5-a]-1,3,5-triazine] | 1.2e-07 |
| Cc1ccc(NS(=O)(=O)c2ccc(-c3cnn4c(O)ncnc34)cc2)cc1 [Example 88, 4-Hydroxy-8-[4-(4-methylphenylaminosulfonyl)phenyl]pyrazolo[1,5-a]-1,3,5-triazine] | < 5e-06 |

target: T1, rat prostate androgen receptor; assay: inhibitory activity on binding of ^3 H-mibolerone on rat prostate androgen receptor; details: ^3 H-mibolerone 1 nM, triamcinolone acetonide 5 μM, rat ventral prostate cytosol, 20 hours at 0° C.; read-out: Inhibitory activity on mibolerone specific binding [IC50 (M)]
Experimental: B. Measurement of inhibitory activity on binding of ^3 H-mibolerone on rat prostate androgen receptor
The rat was sacrificed 24 hours after castration, and the ventral lobe of prostate was removed, and was gently homogenized, in ice-cooling water bath, at first by using Polytron and then using Potter type homogenizer, in three-fold amount of buffer solution A (1.5 mM EDTA, 2 mM dithiothreitol, 10 mM molybdate sodium, 10 % by volume of glycerol, 10 mM NaF, 25 mM phosphate sodium, pH 7.2). The obtained homogenate was filtrated through double gauze, and centrifuged at 105000×g for 60 minutes at 4° C., and the supernatant was obtained as cytoplasm fraction.
(2) Measurement of specific binding of ^3 H-mibolerone on prostate cytoplasm androgen receptor
To the cytoplasm fraction obtained in (1), ^3 H-mibolerone (87.0 Ci/mmol) was added, so that a final concentration is adjusted to 1 nM, and at the same time, in order to inhibit binding of ^3 H-mibolerone to progestin receptor, triamsinolone acetonide was added to a final concentration of 5 μM, and the final volume was adjusted to 0.4 ml with buffer solution A, and the reaction mixture was incubated for 20 hours at 0° C. After incubation, 0.5 ml of 60% hydroxylapatite slurry (washed and equilibrate with a buffer solution B: 10 mM NaH2 P04, 20 mM tris-hydrochloric acid, pH 7.2) was added, and incubated for 10 minutes at 0° C., the solution was transferred onto a glass fiber filter, and washed five times with 5 ml portions of buffer solution B containing 0.1% (weight/volume) of Triton X-100, to remove free ^3 H-mibolerone. This glass fiber was transferred into vial, and 10 ml of aquasol-2 was added, and the radioactivity was measured, and the total binding amount of ^3 H-mibolerone on prostate cytoplasm androgen receptor was determined.
The nonspecific binding amount was determined similarly by adding an unlabeled 5α-DHT in the reaction solution to a final concentration of 1 μM. The difference between the total binding amount and nonspecific binding amount was determined as the specific binding amount on the androgen receptor.
(3) Inhibitory activity of sample compounds on ^3 H-mibolerone specific binding
The compounds obtained in the experiments were added simultaneously with ^3 H-mibolerone at different concentrations to incubate same as in (2), and the specific binding amount of 3H-mibolerone on androgen receptor was determined. Comparing this value with the value obtained in (2), the IC50 value of inhibitory activity of the compounds on ^3 H-mibolerone specific binding was determined.

| SMILES | IC50 [M] |
| --- | --- |
| COc1cccc(-c2cnc3c(-c4ccc(Sc5ccccc5)cc4)cnn3c2O)c1 [Example 54, 7-Hydroxy-6-(3-methoxyphenyl)-3-(4-phenylthiophenyl)pyrazolo[1,5-a]pyrimidine] | 7.6e-07 |
| Oc1c(-c2ccc(F)cc2)cnc2c(-c3ccc(Sc4ccccc4)cc3)cnn12 [Example 55, 7-Hydroxy, 6-(4-fluorophenyl)-3-(4-phenylthiophenyl)pyrazolo[1,5-a]pyrimidine] | 6.6e-08 |
| Oc1c(-c2cccc(F)c2)cnc2c(-c3ccc(Sc4ccccc4)cc3)cnn12 [Example 56, 7-Hydroxy-6-(3-fluorophepyl)-3-(4-phenylthiophenyl)pyrazolo[1,5-a]pyrimidine] | 1.2e-07 |
| Oc1c(-c2ccccc2F)cnc2c(-c3ccc(Sc4ccccc4)cc3)cnn12 [Example 57, 7-Hydroxy-6-(2-fluorophenyl)-3-(4-phenylthiophenyl)pyrazolo[1,5-a]pyrimidine] | 1.45e-07 |
| CC(=O)OCCc1cnc2c(-c3ccc(Sc4ccccc4)cc3)cnn2c1O [Example 59, 6-(2-Acetoxyethyl)-7-hydroxy-3-(4-phenylthiophenyl)pyrazolo[1,5-a]pyrimidine] | 1.65e-07 |
| OCCc1cnc2c(-c3ccc(Sc4ccccc4)cc3)cnn2c1O [Example 60, 7-Hydroxy-6-(2-hydroxyethyl)-3-(4-phenylthiophenyl)pyrazolo[1,5-a]pyrimidine] | 3.9e-08 |
| Oc1ccccc1Cc1cnc2c(-c3ccc(Sc4ccccc4)cc3)cnn2c1O [Example 61, 7-Hydroxy-6-(2-hydroxyphenylmethyl)-3-(4-phenylthiophenyl)pyrazolo[1,5-a]pyrimidine] | 1.6e-07 |
| Oc1cccc(Cc2cnc3c(-c4ccc(Sc5ccccc5)cc4)cnn3c2O)c1 [Example 62, 7-Hydroxy-6-(3-hydroxyphenylmethyl)-3-(4-phenylthiophenyl)pyrazolo[1,5-a]pyrimidine] | 1.2e-07 |
| Oc1ccc(Cc2cnc3c(-c4ccc(Sc5ccccc5)cc4)cnn3c2O)cc1 [Example 63, 7-Hydroxy-6-(4-hydroxyphenylmethyl)-3-(4-phenylthiophenyl)pyrazolo[1,5-a]pyrimidine] | > 5e-06 |
| Oc1ccccc1-c1cnc2c(-c3ccc(Sc4ccccc4)cc3)cnn2c1O [Example 64, 7-Hydroxy-6-(2-hydroxyphenyl)-3-(4-phenylthiophenyl)pyrazolo[1,5-a]pyrimidine] | 7.4e-07 |
| Oc1cccc(-c2cnc3c(-c4ccc(Sc5ccccc5)cc4)cnn3c2O)c1 [Example 65, 7-Hydroxy-6-(3-hydroxyphenyl)-3-(4-phenylthiophenyl)pyrazolo[1,5-a]pyrimidine] | 1.4e-07 |
| Oc1ccc(-c2cnc3c(-c4ccc(Sc5ccccc5)cc4)cnn3c2O)cc1 [Example 66, 7-Hydroxy-6-(4-hydroxyphenyl)-3-(4-phenylthiophenyl)pyrazolo[1,5-a]pyrimidine] | 1.6e-07 |
| CC(=O)c1cnc2c(-c3ccc(Sc4ccccc4)cc3)cnn2c1O [Example 67, 7-Hydroxy-6-acetyl-3-(4-phenylthiophenyl)pyrazolo[1,5-a]pyrimidine] | 3.4e-08 |
| O=C(c1ccccc1)c1cnc2c(-c3ccc(Sc4ccccc4)cc3)cnn2c1O [Example 68, 7-Hydroxy-6-benzoyl-3-(4-phenylthiophenyl)pyrazolo[1,5-a]pyrimidine] | 1.3e-06 |
| O=C(c1cnc2c(-c3ccc(Sc4ccccc4)cc3)cnn2c1O)C(F)(F)F [Example 69, 7-Hydroxy-6-trifluoroacetyl-3-(4-phenylthiophenyl)pyrazolo[1,5-a]pyrimidine] | 8.8e-07 |
| CC(O)c1cnc2c(-c3ccc(Sc4ccccc4)cc3)cnn2c1O (stereo not shown) [Example 70, 7-Hydroxy-6-(1-hydroxyethyl)-3-(4-phenylthiophenyl)pyrazolo[1,5-a]pyrimidine] | 1.55e-07 |
| Oc1c(C(O)c2ccccc2)cnc2c(-c3ccc(Sc4ccccc4)cc3)cnn12 (stereo not drawn) [Example 71, 7-Hydroxy-6-(α-hydroxybenzyl)-3-(4-phenylthiophenyl)pyrazolo[1,5-a]pyrimidine] | 4.6e-07 |
| Oc1c(C(O)C(F)(F)F)cnc2c(-c3ccc(Sc4ccccc4)cc3)cnn12 (stereo not shown) [Example 72, 7-Hydroxy-6-(1-hydroxy-2,2,2-trifluoroethyl)-3-(4-phenylthiophenyl)pyrazolo[1,5-a]pyrimidine] | 1.6e-07 |
| COc1ccc(-c2cnc3c(-c4ccc(Sc5ccccc5)cc4)cnn3c2O)cc1Br [Example 73, 6-(3-bromo-4-methoxyphenyl)-7-hydroxy-3-(4-phenylthiophenyl)pyrazolo[1,5-a]pyrimidine] | > 5e-06 |
| Cc1cc(-c2cnn3c(O)ccnc23)ccc1Sc1ccccc1 [Example 76, 7-Hydroxy-3-(3-methyl-4-phenylthiophenyl)pyrazolo[1,5-a]pyrimidine] | 2.3e-08 |
